# From patent US7858388B2, “MS based peptide and protein sequencing via reactions of lysine residues with peroxycarbonate compounds” (Vanderbilt University, priority 2004, dated 2010)
# Assay: Half-life of peroxycarbonate 1 in basic phosphate buffer (formation of p-nitrophenoxide)
# Type: physicochemical
# Conditions: pH 8.2 phosphate buffer (50% MeOH)
# Protocol: Reaction of p-nitrophenylchloroformate with tert-butyl hydroperoxide gave the peroxycarbonate 1 which was isolated by silica chromatography as a white solid. Pyridine was added dropwise to a 0° C. methylene chloride solution of the hydroperoxide and chloroformate. The product was characterized by ^1H and ^13C NMR, HRMS, mp=55-56° C. In basic water or water acetonitrile mixtures, 1 gave an almost immediate yellow color indicative of the formation of p-nitrophenoxide. The half-life of 1 in pH 8.2 phosphate buffer (50% MeOH) is approximately 112 sec. In basic aqueous acetonitrile solutions, αN-acetyl lysine methyl ester was converted cleanly to 2 on reaction with 10 equivalents of 1. The peroxycarbamate 2 (Ac-LPC-OMe) is stable to chromatography and can be fully characterized by spectroscopy and HRMS (“LPC” is used herein for lycine peroxycarbamate).
smiles,measurement,value
CC(C)(C)OOC(=O)Oc1ccc([N+](=O)[O-])cc1 [compound 1],half-life,~1.87 min
